# Test results: patent US20220346381A1, “COMPOSITION FOR PREVENTING THE FORMATION OF SEEDS IN FRUIT” (ASOCIACION CLUB DE VARIEDADES VEGETALES PROTEGIDAS, priority 2019, published 2022)
# Values joined by “and” are separate entries in the source; they are usually repeats but may differ in a detail not shown here. Equal entries are not always repeated. “Also recorded” adds a separate entry of the source.
# How the values were obtained:
# Nadorcott (mandarin) [1] = assay: Field treatment by tractor on entire rows of adult trees, seeds; assay type: in vivo; settings: scale Field
# Excerpt: Field: treatments by tractor on entire rows of adult trees.
# [2] = test system: common bumblebee (Bombus sp.); assay: Effects on pollinators, laboratory mortality test; assay type: in vivo; settings: for toxicity classification for bumblebees / pollinators: international scale: non-toxic = acute LD50 >100 μg/bee
# [3] = test system: adult trees of the Nadorcott mandarin variety; assay: Phyto-toxicity on sprayed adult trees (chlorosis, necrosis, defoliation); assay type: in vivo; settings: recommended concentrations (below 4%); listed as active product
# Description: Phyto-toxicity tests were performed on adult trees of the Nadorcott mandarin variety. The trees were sprayed with different concentrations of the active product (S8). The level of affection on chlorosis, necrosis and defoliation was assessed, on a scale of 1 to 6, with 1 being very low and 6 being very high.
# [4] = test system: flowers of the Nadorcott mandarin; assay: Action over time, pre-pollination treatment of flowers, seeds in fruit; assay type: in vivo; settings: flowers treated, then pollinated D0 to D9; positive control 4.67 seeds
# Description: (§1) In order to study the action over time of the product, two experiments were carried out on the flowers of the Nadorcott mandarin, one pre-pollination and the other post-pollination. In the pre-pollination experiment 300 flowers were treated with the product of the invention (S8) and subsequently pollinated in batches. One batch was pollinated on the same day (D0) and another batch the following day (D1), and so on successively until D9.
# [5] = test system: flowers of the Nadorcott mandarin; assay: Action over time, post-pollination treatment of flowers, seeds in fruit; assay type: in vivo
# Description: as §1, with “D9. In the post-pollination experiment 360 flowers were first pollinated. In this case, after first having been pollinated a batch was treated with the product on the same day (D0), another batch the following day (D1) and so on successively until day 9 (D9).” for “D9.”
# [6] = test system: cucumber fruit Cucumis sativus L.; assay: Treatment of individual flowers, observation of the fruit formed (seeds); assay type: in vivo; settings: scale Fruit
# Excerpt: (§2) Fruit: treatment of individual flowers and subsequent observation of the fruit formed from the treated flower. […] C+=Positive control=flower pollinated but NOT treated with the active product; PT=Pollen tubes (fluorescent fibres); AP=Active product.
# [7] = test system: watermelons Citrullus lanatus (Thunb.) Matsum. & Nakai; assay: Treatment of individual flowers, pollen tubes in the stigma; assay type: in vivo
# Description: (§3) Flower: treatment on individual flowers and microscopic observation of fluorescence. In this case the presence or absence of pollen tubes (PT) in the stigma was assessed as was their percentage reduction compared to positive controls. Fruit: treatment of individual flowers and subsequent observation of the fruit formed from the treated flower. […] C+=Positive control=flower pollinated but NOT treated with the active product; PT=Pollen tubes (fluorescent fibres); AP=Active product.
# [8] = test system: lemons Citrus limon L. Burm. f.; assay: Treatment of individual pollinated flowers, pollen tubes in the stigma; assay type: in vivo
# Description: as §3, with “controls.” for “controls. Fruit: treatment of individual flowers and subsequent observation of the fruit formed from the treated flower.”
# [9] = test system: clemenules Citrus clementine hort. Ex Tanaka; assay: as above; assay type: in vivo
# Description: as §3, with “controls.” for “controls. Fruit: treatment of individual flowers and subsequent observation of the fruit formed from the treated flower.”
# Nadorcott (mandarin) [10] = assay: as above; assay type: in vivo
# Description: as §3, with “controls.” for “controls. Fruit: treatment of individual flowers and subsequent observation of the fruit formed from the treated flower.”
# [11] = test system: Murcott Citrus reticulata White; assay: as above; assay type: in vivo
# Description: as §3, with “controls.” for “controls. Fruit: treatment of individual flowers and subsequent observation of the fruit formed from the treated flower.”
# [12] = test system: Nova. C. clementine x [C.paradisi x C.tangerina]; assay: as above; assay type: in vivo
# Description: as §3, with “controls.” for “controls. Fruit: treatment of individual flowers and subsequent observation of the fruit formed from the treated flower.”
# Mexican lime = assay: as above; assay type: in vivo
# Description: as §3, with “controls.” for “controls. Fruit: treatment of individual flowers and subsequent observation of the fruit formed from the treated flower.”
# [13] = test system: clementine fina Citrus clementine hort. Ex Tanaka; assay: as above; assay type: in vivo
# Description: as §3, with “controls.” for “controls. Fruit: treatment of individual flowers and subsequent observation of the fruit formed from the treated flower.”
# Grapefruit = assay: as above; assay type: in vivo, grapefruit tree
# Description: as §3, with “controls.” for “controls. Fruit: treatment of individual flowers and subsequent observation of the fruit formed from the treated flower.”
# pollen grains = assay: Germination of pollen grains on Petri dishes; assay type: cell-based; settings: assessed after 72 hours
# Description: The action of the product on the germination of pollen grains was studied. To that end, pollen grains were sown on Petri dishes in laboratory conditions to which growing medium increasing concentrations of the active product (S8) were added. After 72 hours they were assessed and the number of germinated pollen grains were counted on each Petri dish.
# A non-toxic, neutral product (sample), KNO3 was used for comparing the results with those obtained from the active product (AP).
# [14] = test system: aubergines Solanum melongena L.; assay: Treatment of individual flowers, fruit seeds and pollen tubes in the stigma; assay type: in vivo
# Excerpt: as §2
# [15] = test system: Nadorcott variety (mandarin); assay: Treatment of entire trees, number of seeds in the fruit; assay type: in vivo
# Sweet orange = assay: Treatment of individual pollinated flowers, pollen tubes in the stigma; assay type: in vivo, orange tree
# Description: as §3, with “controls.” for “controls. Fruit: treatment of individual flowers and subsequent observation of the fruit formed from the treated flower.”
# [16] = test system: stigma papilla cells of mandarin flower; assay: Microscopy of stigma treated with sulphur only or gibberellic acid only; assay type: in vivo; settings: for state of stigma papilla cells (semi-thin cut): mandarin stigma treated with a single component only; for pollen tubes in the stigma of pollinated mandarin flower (fluorescence microscope): treated with a single component only
# Excerpt: The active ingredient sulphur, preferably in the form of an octatomic molecule (S8), is responsible for preventing the formation of seeds through the alteration of papilla cells of the stigma, whilst the GA is responsible for re-establishing the stimuli needed for the formation of the fruit, thus preventing a possible reduction in yield. The need for GA will depend on each crop and its parthenocarpic capacity. […] This mechanism is substantially due to the effect of sulphur. […] The effect of the active ingredient (sulphur) and gibberellic acid (GA) on papilla cells can be compared separately in FIGS. 6 and 7 through semi-thin microscope cuts.
# grapes Vitis vinifera L. = assay: Treatment of individual pollinated flowers, pollen tubes in the stigma by fluorescence microscopy; assay type: in vivo
# Description: as §3, with “controls.” for “controls. Fruit: treatment of individual flowers and subsequent observation of the fruit formed from the treated flower.”
# mandarin = settings: literature [1,2]; cited from earlier work
# [17] = purified powder; cited from earlier work
smiles,measurement,setting,value
"S1SSSSSSS1 [(S8), sulphur (S) as an octatomic molecule (S8)]",red. of seeds,Nadorcott (mandarin) [1],=81% red. of seeds
same,mortality rate,"[2]; bumblebees, at 48 h",50%
same,toxicity classification for bumblebees / pollinators,[2]; listed as active ingredient,non-toxic
same,toxicity classification for bumblebees / pollinators,[2]; listed as active product,non-toxic for pollinator insects
same,"phyto-toxicity (chlorosis, necrosis, defoliation)",[3],"does not produce necrosis, chlorosis or defoliation; also recorded: not phyto-toxic"
same,seeds in fruit after pre-pollination treatment,[4],did not present a single seed
same,"seeds prevented, post-pollination treatment","[5]; treated D0 to D3 after pollination, positive control 4.7 seeds",100%
same,"seeds prevented, post-pollination treatment",[5]; treated D4-D9 after pollination,approximately 50%
same,red. seeds,[6],=100% red. seeds (FIG. 10A and 10B)
same,red. of PT,"[7]; Watermelon, scale printed Fruit",=100% red. of PT (FIG. 12A and 12B)
same,pollen tubes in treated stigma (fluorescence image),[7]; watermelon,without PT
same,red. of PT,"[8]; Lemon, scale Flower",=100% red. of PT (FIG. 17A and 17B)
same,pollen tubes in treated stigma (fluorescence image),[8]; lemon,without PT
same,red. of PT,"[9]; Clemenules, scale Flower",=100% red. of PT (FIG. 13A and 13B)
same,pollen tubes in treated stigma (fluorescence image),[9]; clemenules,without PT
same,red. of PT,"Nadorcott (mandarin) [10]; Nadorcott, scale Flower",=100% red. of PT
same,efficiencies when applied directly on the flower,Nadorcott (mandarin) [10]; direct application on the flower,95-100%
same,pollen tubes in treated stigma (fluorescence image),[11],without PT
same,red. of PT,[11]; scale Flower,=100% red. of PT (FIG. 15A and 15B)
same,pollen tubes in treated stigma (fluorescence image),[12]; Nova,without PT
same,red. of PT,"[12]; Nova (tangelo), scale Flower",=100% red. of PT (FIG. 16A and 16B)
same,pollen tubes in treated pollinated flowers (fluorescence image),Mexican lime,No visible PT
same,red. of PT,Mexican lime; scale Flower,=100% red. of PT (FIG. 20)
same,red. of PT,"[13]; Fina, scale Flower",=100% red. of PT (FIG. 14A and 14B)
same,pollen tubes in treated stigma (fluorescence image),[13]; clementine fina,without PT
same,red. of PT,"Grapefruit; Grapefruit, scale Flower",=100% red. of PT (FIG. 19)
same,pollen tubes in treated pollinated flowers (fluorescence image),Grapefruit; grapefruit tree,No visible PT
same,concentration at which inhibition of pollen grain germination is total,pollen grains,2000 mg/L
same,red. seeds,"[14]; Aubergine, scale Fruit",=100% red. seeds (FIG. 11A and 11B)
same,pollen tubes in treated stigma (fluorescence image),[14]; aubergine,without PT
same,red. of seeds,"[15]; Nadorcott, scale Tree",~85%
same,reduction of the average number of seeds compared to the positive control (in words),"[15]; entire Nadorcott trees, six experimental products compared",only one to significantly reduce the average number of seeds
same,mean number of seeds in the fruit,"[15]; entire Nadorcott trees, about 120 fruits per treatment, positive control C+ 3.3, listed as T1",0.4 and 0.4083
same,red. of PT,"Sweet orange; Sweet orange, scale Flower",=100% red. of PT (FIG. 18)
same,pollen tubes in treated pollinated flowers (fluorescence image),Sweet orange; orange tree,No visible PT
same,state of stigma papilla cell (TEM),"[16]; TEM, crop not stated",lost turgidity and part of its components and appears collapsed
same,state of stigma papilla cells (semi-thin cut),[16],damaged
same,state of stigma papilla cells (semi-thin cut),[16]; listed as active ingredient (sulphur),"damaged stigma, without turgidity"
same,pollen tubes in the stigma of pollinated mandarin flower (fluorescence microscope),[16]; listed as active ingredient (S8),without pollen tubes; also recorded: no pollen tubes in the stigmatic area
same,red. of PT,"grapes Vitis vinifera L.; Vid, scale Flower, vs positive control",=100% red. of PT (FIG. 9A and 9B)
same,pollen tubes in treated stigma (fluorescence image),"grapes Vitis vinifera L.; grape, pollinated flower",without PT
"C=C1C[C@]23C[C@@]1(O)CC[C@H]2[C@@]12C=C[C@H](O)[C@@](C)(C(=O)O1)[C@H]2[C@@H]3C(=O)O [GA, gibberellic acid, reference compound]",effectiveness for reducing the number of seeds in real field conditions (in words),mandarin,not effective for reducing the number of seeds
same,solubility in ethanol,[17],soluble in ethanol
same,solubility in water,[17],somewhat soluble in water
same,state of stigma papilla cells (semi-thin cut),[16],"intact, functional and turgid"
same,state of stigma papilla cells (semi-thin cut),[16]; listed as gibberellic acid,"good, functional and turgid"
same,pollen tubes in the stigma of pollinated mandarin flower (fluorescence microscope),[16],developed pollen tubes can be clearly observed
same,pollen tubes in the stigma of pollinated mandarin flower (fluorescence microscope),[16]; listed as gibberellic acid,presence of pollen tubes inside the stigma can be clearly seen
"O=[N+]([O-])[O-].[K+] [Treatment T3, potassium nitrate, reference compound]",mean number of seeds in the fruit,[15]; in vivo,3.333
"OC[C@H]1O[C@@](CO)(O[C@H]2O[C@H](CO)[C@@H](O)[C@H](O)[C@H]2O)[C@@H](O)[C@@H]1O [Treatment T6, sucrose, reference compound]",mean number of seeds in the fruit,"[15]; entire Nadorcott trees, about 120 fruits per treatment, positive control C+ 3.3",3.183
